Assays:
[1] = tested on: adolescent and adult subjects with AD; assay: Phase II clinical study in AD: efficacy and subject-reported outcomes; format: in vivo, human; conditions: for itch reduction in weekly average NRS (median): Week 4; for probability of achieving EASI75 / probability of achieving IGA treatment success: model; for patients with 75% improvement in EASI score: post-hoc analysis
Excerpt: This was a multicenter (United States, Canada, and Japan), randomized, double-blind (Sponsor-unblind), vehicle-controlled, 6-arm, parallel-group, dose-finding study in adolescent and adult subjects with AD.
The study consisted of 3 periods: up to 4 weeks screening, 12 weeks double-blind treatment, and 4 weeks post-treatment Follow-up. Study visits occurred at Screening; Baseline; Weeks 1, 2, 4, 8, and 12 during the treatment period; and 2 and 4 weeks after the last application of study treatment (i.e., at Weeks 14 and 16). Additional visits could occur, as needed, to follow-up on any skin reactions or ongoing AEs. A subject's total duration of study participation was approximately 16 to 20 weeks.
Two concentrations of Tapinarof cream (0.5% and 1%) and a vehicle control were evaluated following application to all AD lesions (except on the scalp) once or twice daily for 12 weeks. There were no planned dose adjustments during the study. It was expected that approximately 270 adolescent and adult subjects with AD would be screened to achieve 228 randomized subjects (1:1:1:1:1:1; N=3 8 for each of the 6 treatment groups) and approximately 204 evaluable subjects overall. At least 30 subjects were to be randomized in Japan to achieve at least 24 evaluable Japanese subjects. To ensure an adequate number of adolescents (aged 12 to 17 years) versus adults were represented in the overall study population, enrollment was limited to approximately 65% of either age group.
Efficacy was assessed by using a 5-point static Investigator Global Assessment (IGA) (0-4 scale), the Eczema Area and Severity Index (EASI), percent of body surface area (% BSA) involvement, severity of AD signs using a Total Severity Score (TSS), and by subject-reported itch/pruritus severity using a numeric rating scale (NRS) (from the Daily Sign and Symptom Severity Diary). Additional subject-reported outcomes included the expanded Patient-Oriented Eczema Measure (POEM), a Daily Sign and Symptom Severity Diary, and subject impression of severity of eczema symptoms and overall change in severity of eczema symptoms and overall change in itch/pruritus items. There was also an investigator global impression of change item.
Investigator's Global Assessment: The IGA is a clinical tool for assessing the current state/severity of a subject's AD. It is a static 5-point morphological assessment of overall disease severity, as determined by the investigator, using the clinical characteristics of erythema, infiltration, papulation, oozing, and crusting as guidelines. At each specified time point, the IGA was made without reference to previous scores. Scoring system ranges from 0 (=Clear) to 4 (=Severe).
Eczema Area and Severity Index: The EASI scoring system is a standard clinical tool for assessing the severity of AD that takes into account the overall severity of erythema, infiltration/papulation, excoriation, and lichenification, as well as the extent of BSA affected with AD. The 4 clinical signs are each graded on a 4-point scale (0 to 3) for each of the 4 specified body regions (head and neck, upper extremities, lower extremities, and trunk). The EASI is a static assessment made without reference to previous scores.
Body Surface Area: The extent of BSA affected by AD is a general indicator of disease severity and was measured throughout the study. The extent of BSA to which study treatment was applied was also recorded. For the purpose of approximate clinical estimation, the total palmar surface of the palm plus 5 digits was assumed to be approximately equivalent to 1% BSA.
Total Severity Score: A single target lesion that measured at least 3 cm at Screening and Baseline and was representative of subject disease, but not located on hands, feet or genitalia, was selected at Baseline to assess efficacy in treating a discrete area rather than an overall average of all areas. […]

[2] = Phase II psoriasis study: plasma PK samples; format: in vivo, human; conditions: of 860 samples from patients receiving an active dose
Protocol: Pharmacokinetics: Sparse PK sampling throughout the duration of the study was intended to be used to develop a population PK model and to estimate population PK parameters (i.e., apparent clearance [CL/F], apparent volume of distribution [V/F]) of systemic exposure, according to the Time and Events Table. Plasma analysis was performed under the management of Bioanalysis, Immunogenicity & Biomarkers, IVIVT, PTS, GSK.
The bioanalytical method used to support the study was a fully validated Liquid Chromatography-Tandem Mass Spectrometry (LC-MS/MS) method in accordance with FDA/EU/MHLW guidelines [US Department of Health and Human Services, Food and Drug Administration Draft Guidance for Industry: Bioanalytical Method Validation, 2013] [European Medicines Agency Guideline on Bioanalytical Method Validation, 2011] [Japanese Ministry of Health Guideline on Bioanalytical Method Validation in Pharmaceutical Development, 2013].

[3] = 0.5% BID, Week 8, interim analysis
[4] = 0.5% QD, Week 8, interim analysis
[5] = 1% BID, Week 8, interim analysis
[6] = 1% QD, Week 8, interim analysis

## CC(C)c1c(O)cc(/C=C/c2ccccc2)cc1O [Tapinarof, 3,5-Dihydroxy-4-isopropyl-trans-stilbene]
[1]; 0.5% BID
  EASI75 responders who maintained response from Week 12 to Week 16: 82%
  difference in probability of achieving EASI75 vs vehicle: 42.6%
[1]; 0.5% BID, interim analysis
  itch reduction in weekly average NRS (median): −53.00%
[1]; [3]
  IGA response rate (IGA 0 or 1 and ≥2-grade improvement): 35%
  subjects with 75% reduction in EASI from Baseline: 59%
[1]; 0.5% BID, Week 12
  difference in probability of IGA response vs vehicle: 22.4%
  expanded POEM item 8 (nights woken because of eczema), mean change: −1.3
  patients with minimum three-point improvement in itch NRS: 33%
  subjects reporting severity of AD symptoms as very improved: 47%
  probability of achieving EASI75: 54.2%
  probability of achieving IGA treatment success: 28.7%
[1]; 0.5% BID, Week 12, NRI
  IGA response rate (IGA 0 or 1 and ≥2-grade improvement): 37%
[1]; 0.5% QD
  difference in probability of achieving EASI75 vs vehicle: 28.9%
[1]; 0.5% QD, interim analysis
  itch reduction in weekly average NRS (median): −53.57%
[1]; [4]
  IGA response rate (IGA 0 or 1 and ≥2-grade improvement): 40%
  subjects with 75% reduction in EASI from Baseline: 35%
[1]; 0.5% QD, Week 12
  difference in probability of IGA response vs vehicle: 15.7%
  expanded POEM item 8 (nights woken because of eczema), mean change: −1.2
  patients with minimum three-point improvement in itch NRS: 29%
  subjects reporting severity of AD symptoms as very improved: 40%
  probability of achieving EASI75: 32.6%
  probability of achieving IGA treatment success: 18.3%
[1]; 0.5% QD, Week 12, NRI
  IGA response rate (IGA 0 or 1 and ≥2-grade improvement): 34%
[1]; 0.5% QD, Week 12, primary analysis
  proportion of subjects with IGA treatment success: 40%
[1]; 0.5% groups, Week 12
  subjects rating pruritus symptoms very improved or moderately improved: 80-81%
[1]; 1% BID
  EASI75 responders who maintained response from Week 12 to Week 16: 63%
  difference in probability of achieving EASI75 vs vehicle: 74.5%
[1]; 1% BID, interim analysis
  itch reduction in weekly average NRS (median): −56.35%
[1]; [5]
  IGA response rate (IGA 0 or 1 and ≥2-grade improvement): 35%
  subjects with 75% reduction in EASI from Baseline: 45%
[1]; 1% BID, Week 12
  absolute change in percent BSA affected from baseline (mean): 11.2
  difference in probability of IGA response vs vehicle: 61.5%
  patients rating itch moderately improved to very improved: 78%
  patients with minimum three-point improvement in itch NRS: 30%
  reduction in total severity score (mean change): 5.8
  subjects reporting severity of AD symptoms as very improved: 64%
  probability of achieving EASI75: 86.0%
  probability of achieving IGA treatment success: 67.7%
  patients with 75% improvement in EASI score: 60%
[1]; 1% BID, Week 12, NRI
  IGA response rate (IGA 0 or 1 and ≥2-grade improvement): 53%
[1]; 1% QD
  EASI75 responders who maintained response from Week 12 to Week 16: 57%
  difference in probability of achieving EASI75 vs vehicle: 77.0%
[1]; 1% QD, interim analysis
  itch reduction in weekly average NRS (median): −57.14%
[1]; [6]
  IGA response rate (IGA 0 or 1 and ≥2-grade improvement): 74%
  subjects with 75% reduction in EASI from Baseline: 63%
[1]; 1% QD, Week 12
  absolute change in percent BSA affected from baseline (mean): 11.6
  difference in probability of IGA response vs vehicle: 60.1%
  patients rating itch moderately improved to very improved: 86%
  patients with minimum three-point improvement in itch NRS: 32%
  reduction in total severity score (mean change): 5.5
  subjects reporting severity of AD symptoms as very improved: 59%
  probability of achieving EASI75: 80.7%
  probability of achieving IGA treatment success: 62.6%
  patients with 75% improvement in EASI score: 51%
[1]; 1% QD, Week 12, NRI
  IGA response rate (IGA 0 or 1 and ≥2-grade improvement): 46%
[1]; 1% groups, Week 12
  subjects rating pruritus symptoms very improved or moderately improved: 78-87%
[1]; Japanese population, 1% QD, Week 4 to Week 12
  subjects with minimum 3-point improvement in itch/pruritus: approximately 70%
[1]; Tapinarof groups, Week 12
  subjects rating severity of itch very improved or moderately improved: ≥ 78%
[1]; active treatment groups, Week 12
  subjects rating severity of eczema symptoms very improved or moderately improved: > 80%
[1]; adolescent population, active treatment groups
  subjects rated by investigators as very improved or moderately improved: ≥ 90%
[2]
  plasma samples below the Lower Limit of Quantitation (LLQ): 649 samples
  plasma samples quantified: 157 samples
